Laboratory results published in ChEMBL document CHEMBL1135557 (Bioorg Med Chem Lett, 2002).
Values after ≈ are worked out from the molar mass of the structure shown.

Legend:
[1] = system: HCT-116; assay: In vitro cytotoxic activity (growth inhibition) of compound against HCT 116 cancer cell line was determined; assay type: functional; conditions: Homo sapiens
[2] = molecular target: Tubulin (Sus scrofa, UniProt P02554+P02550); assay: Concentration of compound required to inhibit tubulin polymerization (Microtubule assembly) was determined by the turbidity formation after 20 min of incubation; assay type: functional
[3] = system: PC-12; assay: In vitro cytotoxic activity (growth inhibition) of compound against PC-12 human cancer cell line was determined
[4] = molecular target: Tubulin alpha chain (Sus scrofa) (UniProt P02550); assay: Inhibitory binding percentage of compound towards colchicine site in tubulin using tubulin-[3H]colchicine as radioligand at a concentration of 100 uM
Tubulin alpha chain (Sus scrofa), sequence (P02550 whole entry, looked up): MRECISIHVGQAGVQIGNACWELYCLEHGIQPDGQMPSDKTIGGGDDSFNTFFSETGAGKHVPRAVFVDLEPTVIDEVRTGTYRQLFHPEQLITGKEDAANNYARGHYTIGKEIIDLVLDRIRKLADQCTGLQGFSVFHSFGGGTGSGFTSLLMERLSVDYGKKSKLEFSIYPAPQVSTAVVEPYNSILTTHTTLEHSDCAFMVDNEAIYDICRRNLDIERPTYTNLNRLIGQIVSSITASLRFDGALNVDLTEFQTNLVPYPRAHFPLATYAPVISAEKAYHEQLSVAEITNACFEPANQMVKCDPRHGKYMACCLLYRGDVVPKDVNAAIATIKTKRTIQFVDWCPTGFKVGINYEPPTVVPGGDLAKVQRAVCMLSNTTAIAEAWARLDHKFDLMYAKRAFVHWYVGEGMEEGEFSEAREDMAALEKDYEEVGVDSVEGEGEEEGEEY

[5] = molecular target: Tubulin alpha chain (Sus scrofa) (UniProt P02550); assay: Inhibitory binding percentage of compound towards colchicine site in tubulin using tubulin-[3H]colchicine as radioligand at a concentration of 200 uM

Row | Compound | GI50 [1] | IC50 [2] | GI50 [3] | Inhibitory binding [4] | Inhibitory binding [5]
1 | Cc1c(/C=C/CN2CCN(c3cc(F)cc(F)c3)CC2)cnn1-c1ccnc(N)n1.Cl | 0.0329 µg/mL | 3.72 µM | 0.0199 µg/mL | – | –
2 | COc1cc2c(c(OC)c1OC)-c1ccc(OC)c(=O)cc1[C@@H](NC(C)=O)CC2 [COLCHICINE] | 0.0084 µg/mL (≈ 0.021 µM) | – | 0.0315 µg/mL (≈ 0.0789 µM) | 98% | 100%
3 | Cc1c(/C=C/CN2CCN(c3cccc(Cl)c3)CC2)cnn1-c1ncccn1.Cl | 0.254 µg/mL | 35.96 µM | 0.181 µg/mL | – | –
4 | Cc1c(/C=C/CN2CCN(c3cc(F)cc(F)c3)CC2)cnn1-c1nccc(N)n1.Cl | 0.0208 µg/mL | 11.05 µM | 0.0216 µg/mL | – | –
5 | Cc1c(/C=C/CN2CCN(c3cc(F)cc(F)c3)CC2)cnn1-c1ncccn1.Cl | 0.0701 µg/mL | 9.08 µM | 0.0625 µg/mL | 82% | 93%
6 | CC[C@]1(O)C[C@@H]2CN(CCc3c([nH]c4ccccc34)[C@@](C(=O)OC)(c3cc4c(cc3OC)N(C)[C@H]3[C@@](O)(C(=O)OC)[C@H](OC(C)=O)[C@]5(CC)C=CCN6CC[C@]43[C@@H]65)C2)C1 [VINBLASTINE] | 0.001 µg/mL (≈ 0.00123 µM) | – | 0.0102 µg/mL (≈ 0.0126 µM) | – | –
